Test results reported in paper PMC10145285, “Diverse Biological Activity of Benzofuroxan/Sterically Hindered Phenols Hybrids” (Pharmaceuticals, 2023).
Like-named read-outs stand apart in the source and are kept apart here.

What was measured:
MCF-7 = assay: cells; type: cell-based, human; settings: Homo sapiens, MCF7, 48 h, read-out: IC50, MCF-7
[1] = tested on: Staphylococcus aureus ATCC 6538P FDA 209P (Sa); assay: Antimicrobial serial microdilution, Sa; type: cell-based
[2] = tested on: Bacillus cereus ATCC 10702 (Bc); assay: Antimicrobial serial microdilution, Bc; type: cell-based
[3] = tested on: Enterococcus faecalis ATCC 29212 (Ef); assay: Antimicrobial serial microdilution, Ef; type: cell-based
MRSA-1 = assay: Antimicrobial serial microdilution, MRSA-1; type: cell-based, Staphylococcus aureus
MRSA-2 = assay: Antimicrobial serial microdilution, MRSA-2; type: cell-based, Staphylococcus aureus
HuTu 80 = assay: cells; settings: Homo sapiens, HuTu80, 48 h, read-out: IC50, HuTu 80
M-HeLa = assay: cells; settings: Homo sapiens, 48 h, read-out: IC50, M-HeLa
Chang Liver = assay: cells; settings: Homo sapiens, 48 h, read-out: IC50, Chang Liver
PC3 = assay: cells; type: cell-based; settings: Homo sapiens, PC-3, 48 h, read-out: IC50, PC3
T98G = assay: cells; type: cell-based; settings: Homo sapiens, 48 h, read-out: IC50, T98G
A375 = assay: cells; type: cell-based; settings: Homo sapiens, A-375, 48 h, read-out: IC50, A375
WI38 = assay: cells; type: cell-based; settings: Homo sapiens, WI-38, 48 h, read-out: IC50, WI38
PANC-1 = assay: cells; settings: Homo sapiens, PANC-1, 48 h, read-out: IC50, PANC-1
A549 = assay: cells; settings: Homo sapiens, A549, 48 h, read-out: IC50, A549
[4] = serial microdilution, strain resistant to β-lactams and fluoroquinolones
[5] = serial microdilution, strain resistant only to β-lactams

Row | SMILES | IC50 (MCF-7) [µM] | Minimum Inhibitory Concentration (MIC), Sa [1] | Minimum Inhibitory Concentration (MIC), Bc [2] | Minimum Inhibitory Concentration (MIC), Ef [3] | Minimum Inhibitory Concentration (MIC), MRSA-1 (MRSA-1; [4]) | Minimum Inhibitory Concentration (MIC), MRSA-2 (MRSA-2; [5]) | IC50 (HuTu 80) [µM] | IC50 (M-HeLa) [µM] | IC50 (Chang Liver) [µM] | Minimum Inhibitory Concentration (MIC), MRSA-1 (MRSA-1) | Minimum Inhibitory Concentration (MIC), MRSA-2 (MRSA-2) | IC50 (PC3) [µM] | IC50 (T98G) [µM] | IC50 (A375) [µM] | IC50 (WI38) [µM] | IC50 (PANC-1) [µM] | IC50 (A549) [µM]
1 | COP(=O)(OC)C(c1cc(C(C)(C)C)c(O)c(C(C)(C)C)c1)c1ccc(N)nc1N (centres unmarked) [2a] | 31 ± 2.6 | - | - | - | - | - | > 100 | 16.1 ± 1.3 | > 100 |  |  |  |  |  |  |  | 
2 | CCOP(=O)(OCC)C(c1cc(C(C)(C)C)c(O)c(C(C)(C)C)c1)c1ccc(N)nc1N (centres unmarked) [2b] | 34.2 ± 3 |  |  |  |  |  | 86.6 ± 6.8 | 17.1 ± 1.3 | > 100 |  |  |  |  |  |  |  | 
3 | CC(C)OP(=O)(OC(C)C)C(c1cc(C(C)(C)C)c(O)c(C(C)(C)C)c1)c1ccc(N)nc1N (centres unmarked) [2c] | 21.8 ± 1.7 | - | - | - | - | - | > 100 | 38 ± 2.8 | > 100 |  |  |  |  |  |  |  | 
4 | CC(C)(C)c1cc(C(c2ccc(N)nc2N)P(=O)(Oc2ccccc2)Oc2ccccc2)cc(C(C)(C)C)c1O (centres unmarked) [2d] | 16 ± 1.2 | - | - | - |  |  | 63.2 ± 5.6 | 7.4 ± 0.7 | 52 ± 3.5 | - | - |  |  |  |  |  | 
5 | COP(=O)(OC)C(c1cc(C(C)(C)C)c(O)c(C(C)(C)C)c1)c1ccc(N)cc1N (centres unmarked) [2e] | > 100 |  |  |  |  |  |  | 45.3 ± 3.2 | > 100 |  |  |  |  |  |  |  | 
6 | COP(=O)(OC)C(c1cc(C(C)(C)C)c(O)c(C(C)(C)C)c1)c1ccc(Nc2c([N+](=O)[O-])cc([N+](=O)[O-])c3no[n+]([O-])c23)nc1N (centres unmarked) [4a, 7-((6-amino-5-((3,5-di-tert-butyl-4-hydroxyphenyl)(dimethoxyphosphoryl)methyl)pyridin-2-yl)amino)-4,6-dinitrobenzo[c][1,2,5]oxadiazole 1-oxide] | 7.6 ± 0.6 | - | - | - |  |  | 5.2 ± 0.4 | 4.2 ± 0.3 | 12 ± 1.2 | - | - | 14 ± 1.2 | 12.4 ± 1.2 | 13.5 ± 1.2 | 7.2 ± 0.6 | 20 ± 1.7 | 13.5 ± 1.2
7 | CCOP(=O)(OCC)C(c1cc(C(C)(C)C)c(O)c(C(C)(C)C)c1)c1ccc(Nc2c([N+](=O)[O-])cc([N+](=O)[O-])c3no[n+]([O-])c23)nc1N (centres unmarked) [4b, 7-((6-amino-5-((3,5-di-tert-butyl-4-hydroxyphenyl)(diethoxyphosphoryl)methyl)pyridin-2-yl)amino)-4,6-dinitrobenzo[c][1,2,5]oxadiazole 1-oxide] | 3.1 ± 0.2 |  |  |  |  |  | 5.4 ± 0.3 | 2.9 ± 0.2 | 7 ± 1.5 |  |  | 11 ± 0.8 | 8.3 ± 0.7 | 11.4 ± 0.9 | 5.3 ± 0.4 | 5.3 ± 0.4 | 9.3 ± 0.8
